Where two headings read alike, the source gives them in different places.
How the values were obtained:
CD-14 receptor = molecular target: T1, CD-14 receptor (Homo sapiens, UniProt P08571); test: serum-mediated binding of FITC-labeled lipopolysaccharide to CD-14 transfected Chinese hamster ovary cell lines; type: cell-based; conditions: CD14+ cells
T1 construct: expressed in transfected cells; host or cells: Chinese hamster ovary cell lines
T1 sequence (P08571 20-345): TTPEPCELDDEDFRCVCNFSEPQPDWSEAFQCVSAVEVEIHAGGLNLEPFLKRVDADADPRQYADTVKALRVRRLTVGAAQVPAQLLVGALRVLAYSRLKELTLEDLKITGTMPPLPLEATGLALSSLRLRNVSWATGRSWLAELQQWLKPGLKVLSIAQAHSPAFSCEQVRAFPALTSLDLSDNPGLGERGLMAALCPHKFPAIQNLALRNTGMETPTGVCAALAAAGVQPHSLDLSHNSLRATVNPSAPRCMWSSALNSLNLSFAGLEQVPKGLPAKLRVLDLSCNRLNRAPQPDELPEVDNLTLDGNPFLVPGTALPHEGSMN
Method: Methods: The test was performed according to Grunwald (CD-14 als Rezeptor für Endotoxin: in vitro-Untersuchungen zu Bindungsmodalitaten von LPS und zur Beeinflussung der Expression. Dissertation Ernst-Moritz-Arndt-Universität Greifswald 1993). For the tests, cell lines from ovaries of Chinese hamsters were used which express the CD-14 receptor after transfection of the CD-14 gene. The lipopolysaccharide was labeled with FITC so that the binding to the receptor could be determined by measuring the fluorescence intensity.

influenza virus type A = test: antiviral activity
[1] = tested on: Aeromonas salmonicida subsp. salmonicida 67 A 1; test: agar diffusion test on fish-pathogenic bacteria; type: cell-based
[2] = tested on: Aeromonas hydrophila DSM 30019; test: agar diffusion test on fish-pathogenic bacteria; type: cell-based
[3] = tested on: Vibrio anguillarum ATCC 1188; test: agar diffusion test on fish-pathogenic bacteria; type: cell-based
[4] = tested on: oxygen free-radical release; test: free-radical scavenging by luminol chemiluminescence in zymosan-stimulated human blood; type: cell-based; conditions: 10 μg/ml
Method: The proof was established as follows:
A: […] was preincubated with […] of PBS+luminol (0.33 mM final) at 37° C. for 20 min.
B: 30 μl of human blood was preincubated with […] of PBS+luminol (0.33 mM final) and […] of substance dilution at 37° C. for 20 min.
To A was pipetted 20 μl of a 1:100 dilution of the extract of Example 11 and 20 μl of zymosan (10 mg/ml).
To B was pipetted 20 μl of zymosan (10 mg/ml).
As a control, PBS was used instead of zymosan as a stimulator with and without substance in charges A and B. After intensive mixing, the kinetics of the luminescence were measured over 60 min. The examinations were performed on two different days with blood from two different blood donors.
Methods: The free-radical scavenging function of the active substances of formula 1, ganomycin A and ganomycin B, broadens the possibilities of medicinal use. The proof was established as in the examination of the extracts according to Example 48.

S. aureus = test: agar diffusion test
Method: In the first stage of examination, the agar diffusion test was employed. The extracts and substances to be tested were respectively dissolved using appropriate solvents (dichloromethane, methanol and water) and applied to filter paper sheets in different concentrations. Comparative sheets soaked with 25 μl of the corresponding solvent served as a control. Ampicillin (10 μg/sheet) was employed as a reference substance. The dried filter paper sheets were finally placed onto agar plates. For the basic screening, nutrient agar II (VEB Immunpraparate, Berlin, Germany) was employed, and for the examination on strains isolated from patient material, Mueller-Hinton II agar (Becton Dickinson Microbiology Systems, Cockeysville, USA) was employed. Using an inoculation wire loop, a pinheadful of test germ culture was suspended in 3 ml of a sterile 0.90% NaCl solution. Subsequently, 200 μl of the germ suspension was added to 20 ml of sterile, liquefied and slightly warm nutrient agar and cast into Petri dishes having a diameter of 10 cm. After placing the sheets onto the congealed agar, the plates were preincubated at 8° C. for about 2 to 3 hours, followed by incubation of the plates in an incubator at 37° C. for 24 hours. Micrococcus flavus was an exception. This culture was stored only at room temperature because the germ reaches its optimum growth at 20° C.
The evaluation of the plates was effected by measuring the diameters of the inhibition halos. All operations were done under aseptic conditions.

S. haemolyticus = test: agar diffusion test on pathogens of Gram-positive infections; conditions: S. haemolyticus (multiresistant strains isolated from patient material)
Method: (§1) In the first stage of examination, the agar diffusion test was employed. The extracts and substances to be tested were respectively dissolved using appropriate solvents (dichloromethane, methanol and water) and applied to filter paper sheets in different concentrations. Comparative sheets soaked with 25 μl of the corresponding solvent served as a control. Ampicillin (10 μg/sheet) was employed as a reference substance. The dried filter paper sheets were finally placed onto agar plates. For the basic screening, nutrient agar II (VEB Immunpraparate, Berlin, Germany) was employed, and for the examination on strains isolated from patient material, Mueller-Hinton II agar (Becton Dickinson Microbiology Systems, Cockeysville, USA) was employed. Using an inoculation wire loop, a pinheadful of test germ culture was suspended in 3 ml of a sterile 0.90% NaCl solution. Subsequently, 200 μl of the germ suspension was added to 20 ml of sterile, liquefied and slightly warm nutrient agar and cast into Petri dishes having a diameter of 10 cm. After placing the sheets onto the congealed agar, the plates were preincubated at 8° C. for about 2 to 3 hours, followed by incubation of the plates in an incubator at 37° C. for 24 hours. Micrococcus flavus was an exception. This culture was stored only at room temperature because the germ reaches its optimum growth at 20° C. […]

Enterococci = test: as above; conditions: Enterococci (multiresistant strains isolated from patient material)
Method: as §1

[5] = tested on: human hepatoma cells (PLC/PRF/5 cells); conditions: Hager, reference 66; cited from earlier work
KB cells = conditions: Hager, reference 66; cited from earlier work
[6] = tested on: peritoneal mast cells of rats; conditions: 2 mg/ml; Hager, reference 31; cited from earlier work
[7] = molecular target: angiotensin-converting enzyme (Homo sapiens, UniProt P12821); conditions: in vitro; Hager, reference 39; cited from earlier work
Sequence of angiotensin-converting enzyme (P12821 30-1306, species assumed): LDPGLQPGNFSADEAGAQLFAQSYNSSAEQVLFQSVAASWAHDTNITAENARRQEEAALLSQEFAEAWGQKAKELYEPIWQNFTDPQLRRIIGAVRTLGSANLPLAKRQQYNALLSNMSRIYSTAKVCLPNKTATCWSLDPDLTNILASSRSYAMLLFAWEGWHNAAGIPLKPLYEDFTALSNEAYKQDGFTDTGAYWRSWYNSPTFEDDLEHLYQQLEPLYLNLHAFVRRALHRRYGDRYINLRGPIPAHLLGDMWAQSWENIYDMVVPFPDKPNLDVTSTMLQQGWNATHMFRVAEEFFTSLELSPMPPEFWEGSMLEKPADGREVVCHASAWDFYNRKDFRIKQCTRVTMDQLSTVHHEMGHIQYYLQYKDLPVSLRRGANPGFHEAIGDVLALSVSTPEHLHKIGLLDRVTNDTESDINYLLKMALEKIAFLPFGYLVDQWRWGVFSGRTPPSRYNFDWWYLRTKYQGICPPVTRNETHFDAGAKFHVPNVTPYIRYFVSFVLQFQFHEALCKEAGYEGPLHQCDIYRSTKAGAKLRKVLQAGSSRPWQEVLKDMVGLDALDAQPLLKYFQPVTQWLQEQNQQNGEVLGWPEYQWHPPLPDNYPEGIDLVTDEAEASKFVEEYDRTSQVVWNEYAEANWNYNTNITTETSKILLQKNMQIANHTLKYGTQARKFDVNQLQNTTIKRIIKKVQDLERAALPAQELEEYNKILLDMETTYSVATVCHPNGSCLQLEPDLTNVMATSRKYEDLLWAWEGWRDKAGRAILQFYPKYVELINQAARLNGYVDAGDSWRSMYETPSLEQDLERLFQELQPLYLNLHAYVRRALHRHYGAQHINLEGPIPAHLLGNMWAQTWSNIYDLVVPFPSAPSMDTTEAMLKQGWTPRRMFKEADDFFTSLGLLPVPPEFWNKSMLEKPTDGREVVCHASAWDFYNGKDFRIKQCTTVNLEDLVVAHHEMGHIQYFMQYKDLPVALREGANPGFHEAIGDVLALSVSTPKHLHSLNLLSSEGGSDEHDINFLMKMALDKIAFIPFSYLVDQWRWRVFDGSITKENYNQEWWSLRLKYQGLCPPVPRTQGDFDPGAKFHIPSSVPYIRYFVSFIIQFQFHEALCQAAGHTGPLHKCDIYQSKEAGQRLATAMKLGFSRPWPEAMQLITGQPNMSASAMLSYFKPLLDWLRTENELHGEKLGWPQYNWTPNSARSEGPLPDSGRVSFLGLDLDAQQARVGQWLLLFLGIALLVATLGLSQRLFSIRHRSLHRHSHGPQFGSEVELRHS

Method for S. epidermidis: Methods: Extracts according to Example 9 in a concentration of 2 mg/l were dropped onto standardized test plates for the resistance assay for the commercially available antibiotics amicazin, trimethroprim and fusidinic acid (Sensi-Disk Antibiotics Test Plates, Becton Dickinson Microbiology Systems, Cockeysville, USA). The antibacterial activity was determined according to Example 1 on multiresistant coagulase-negative staphylococci isolated from patient material.

Q: Which results are given for `C/C(=C\CC[C@@H](C)[C@H]1CC[C@@]2(C)C3=C(CC[C@]12C)[C@@]1(C)CC[C@H](O)C(C)(C)[C@@H]1CC3=O)CO` [Ganoderone B, 3,26-dihydroxylanosta-8,24-diene-7-one]?
A: inhibition of the lipopolysaccharide binding (in words) (CD-14 receptor): inhibits; antiviral activity against influenza virus type A (influenza virus type A): has antiviral activity

Q: What does the source list for `CC(=CCCC(C)=CCCC(=CCc1cc(O)ccc1O)C(=O)O)CO` [Ganomycin A, 2-[2-(2,5-dihydroxyphenyl)ethylidene]-11-hydroxy-6,10-dimethylundeca-5,9-dienic acid]?
A: Diameter of inhibition halo [1]: 10 mm; Diameter of inhibition halo [2]: 15 mm; Diameter of inhibition halo [3]: 10 mm; inhibition of the lipopolysaccharide binding (in words) (CD-14 receptor): causes inhibition; luminol-induced and spontaneous oxygen free-radical release [4]: inhibit

Q: Which results are given for `CC(C)=CCCC(C)=CCCC(=CCc1cc(O)ccc1O)C(=O)O` [Ganomycin B, 2-[2-(2,5-dihydroxyphenyl)ethylidene]-6,10-dimethylundeca-5,9-dienic acid]?
A: Diameter of inhibition halo [1]: 12 mm; Diameter of inhibition halo [2]: 17 mm; Diameter of inhibition halo [3]: 26 mm; inhibition of the lipopolysaccharide binding (in words) (CD-14 receptor): causes inhibition; luminol-induced and spontaneous oxygen free-radical release [4]: inhibit; Inhibition halo (S. aureus; S. aureus (MRSA strains isolated from patient material)): 10-16 mm; Inhibition halo (S. aureus; S. aureus ATCC 6538): 30 mm; Inhibition halo (S. aureus; S. aureus ATCC 25923): 25 mm; Inhibition halo (S. aureus; S. aureus ATCC 29213): 22 mm; Inhibition halo (S. aureus; S. aureus reference strain “North-German Strain” (Smith Kline Beecham)): 16 mm; Inhibition halo (S. haemolyticus): 12-16 mm; Inhibition halo (Enterococci): 10-14 mm; Inhibition halo (S. epidermidis; S. epidermidis 125, extract 2 mg/l dropped onto antibiotic test plates): 16 mm; Inhibition halo (S. epidermidis; S. epidermidis 473, extract 2 mg/l dropped onto antibiotic test plates): 20 mm; Inhibition halo (S. epidermidis; S. epidermidis 847, extract 2 mg/l dropped onto antibiotic test plates): 16 mm; Inhibition halo (S. epidermidis; S. epidermidis (multiresistant strains isolated from patient material)): 16-20 mm

Q: For `CC(C)[C@@H](C)C=C[C@@H](C)[C@H]1CC[C@H]2C3=CCC4C[C@H](O)[C@@H](O)C[C@]4(C)[C@@]3(O)CC[C@]12C` (stereo partly drawn) [ergosta-7,22-diene-2β,3α,9α-triol], which “ED50 for the hepatoma cells” value [5] is on record?
A: Its value is 1170 µg/mL.

Q: And the “ED50 for KB cells” value (KB cells)?
A: The value was 0.89 µg/mL.

Q: Which “reduction of 48/80-induced histamine release” value [6] does the source give for `CC(CC(=O)C[C@@H](C)[C@H]1CC(=O)[C@@]2(C)C3=C(C(=O)C[C@]12C)[C@@]1(C)CCC(=O)C(C)(C)[C@@H]1C[C@@H]3O)C(=O)O` (some centres unmarked) [ganoderic acid D] here?
A: Its value is 80%.

Q: And the “reduction of Con-A-induced histamine release” value [6]?
A: Its value is 80%.

Q: For `CC(=O)O[C@@H]1C(=O)C2=C(C(=O)C[C@H]3C(C)(C)C(=O)CC[C@]23C)[C@]2(C)C(=O)C[C@H]([C@H](C)CC(=O)CC(C)C(=O)O)[C@@]12C` (some centres unmarked) [ganoderic acid F], which IC50 [7] is on record?
A: The IC50 was 4.7 µM.

Q: Which results are given for ganoderaldehyde A?
A: ED50 for the hepatoma cells [5]: 10.99 µg/mL; ED50 for KB cells (KB cells): 9.75 µg/mL

Q: Which “reduction of 48/80-induced histamine release” value [6] does the source give for ganoderic acid C here?
A: The value was 70%.

Q: And the “reduction of Con-A-induced histamine release” value [6]?
A: Its value is 85%.

Reference: patent US6726911B1, “Biologically active compounds of Ganoderma pfeifferi DSM 13239” (Ganomycin, priority 1999, dated 2004)
